In general, IC50 refers to the concentration needed to halve the response being measured.

Molecules are shown by their SMILES.

This passage reports IC50 and Activity results from ChEMBL document CHEMBL4043165, “Synthesis, estrogen receptor binding affinity and molecular docking of pyrimidine-piperazine-chromene and -quinoline conjugates” (Bioorg Med Chem Lett, 2017).

Holding throughout (format): cell-based
The test system of series [1] is HEK-293T. As to the kind of experiment: Cytotoxicity against HEK293T cells assessed as reduction in cell viability after 48 hrs by MTT assay. As to conditions: Homo sapiens. A general note: Formazan colour is commonly taken as a measure of viable cells.
Series [2] has as its system HEK-293T. As to the kind of experiment: Cytotoxicity against HEK293T cells assessed as reduction in cell viability at <50 uM after 48 hrs by MTT assay. The settings on record: human.
Series [3] can be described thus: Modulation activity at ER in human MCF7 cells assessed as reduction in cell viability after 48 hrs by MTT assay. The settings on record: MCF7, 48 h.
Series [4] concerns HEK-293T. Nature of the series: Cytotoxicity against HEK293T cells assessed as reduction in cell viability up to 50 uM after 48 hrs by MTT assay. The settings on record: human.

For the compound `Cc1nc(Oc2ccc3c(c2)OC(N)=C(C#N)C3c2ccc(F)cc2)cc(N2CCN(CCO)CC2)n1` (stereo unspecified), the 50% inhibitory concentration (IC50) stood at 52 µM in the series on HEK-293T [1] and 166 µM in series [3]. The Activity entry in the series with HEK-293T [2] is reported as “Toxic”.

Regarding `COc1ccc(C2C(C#N)=C(N)Oc3cc(Oc4cc(N5CCN(CCO)CC5)nc(C)n4)ccc32)cc1` (stereo unspecified), the IC50 worked out at 55 µM with HEK-293T [1] and 104 µM in series [3]. Moreover, the Activity entry with HEK-293T [2] is “Toxic”.

For `COc1cccc(C2C(C#N)=C(N)Nc3cc(Oc4cc(N5CCN(CCO)CC5)nc(C)n4)ccc32)c1` (stereo unspecified), the figures for the IC50 (with HEK-293T [1]; in series [3]) were 39 µM and 166 µM, respectively. The Activity result in the series with HEK-293T [2] is reported as “Toxic”.

As to `Cc1nc(Oc2ccc3c(c2)OC(N)=C(C#N)C3c2ccccc2Cl)cc(N2CCN(CCO)CC2)n1` (stereo unspecified), the figures for the concentration for half-maximal inhibition (IC50) (with HEK-293T [1]; in series [3]) were 79 µM and 119 µM, respectively. The Activity entry in the series on HEK-293T [2] is given as “Toxic”.

Regarding `Cc1nc(Oc2ccc3c(c2)OC(N)=C(C#N)C3c2ccc(Cl)cc2)cc(N2CCN(CCO)CC2)n1` (stereo unspecified), the half-inhibitory concentration (IC50) with HEK-293T [1] amounted to 18 µM; in series [3], 73 µM. In addition, the Activity result in the series on HEK-293T [2] is listed as “Toxic”.

Consider `Cc1nc(Oc2ccc3c(c2)NC(N)=C(C#N)C3c2ccc(F)cc2)cc(N2CCN(CCO)CC2)n1` (stereo unspecified), for which the IC50 in the series on HEK-293T [1] was 72 µM; in series [3], 48 µM. Besides, the Activity entry in the series with HEK-293T [2] was “Toxic”.

`COc1ccc(C2C(C#N)=C(N)Nc3cc(Oc4cc(N5CCN(CCO)CC5)nc(C)n4)ccc32)cc1` (stereo unspecified): the IC50 in the series with HEK-293T [1] worked out at 62 µM; in series [3], 12 µM. The Activity result in the series with HEK-293T [2] is “Toxic”.

Regarding `Cc1nc(Oc2ccc3c(c2)NC(N)=C(C#N)C3c2ccccc2)cc(N2CCN(CCO)CC2)n1` (stereo unspecified), the IC50 stood at 141 µM with HEK-293T [1] and 65 µM in series [3]. For the same compound, in the series on HEK-293T [4], the Activity result was “Non-Toxic”.

`Cc1nc(Oc2ccc3c(c2)NC(N)=C(C#N)C3c2ccc(Br)cc2)cc(N2CCN(CCO)CC2)n1` (stereo unspecified): the IC50 with HEK-293T [1] is 62 µM; in series [3], 193 µM. Besides, in the series on HEK-293T [2], the Activity result is “Toxic”.

In the case of `Cc1nc(Oc2ccc3c(c2)OC(N)=C(C#N)C3c2ccc([N+](=O)[O-])cc2)cc(N2CCN(CCO)CC2)n1` (stereo unspecified), the IC50 in the series on HEK-293T [1] turned out to be 105 µM; in series [3] it was 30 µM. The Activity result in the series with HEK-293T [4] is given as “Non-Toxic”.

For `Cc1nc(Oc2ccc3c(c2)OC(N)=C(C#N)C3c2ccccc2C)cc(N2CCN(CCO)CC2)n1` (stereo unspecified), the IC50 is 56 µM with HEK-293T [1] and 61 µM in series [3]. Besides, the Activity result in the series with HEK-293T [2] was “Toxic”.

`Cc1nc(Oc2ccc3c(c2)NC(N)=C(C#N)C3c2ccccc2Cl)cc(N2CCN(CCO)CC2)n1` (stereo unspecified): the IC50 with HEK-293T [1] turned out to be 70 µM; in series [3], 190 µM. Besides, in the series with HEK-293T [2], the Activity entry is on record as “Toxic”.

Regarding `Cc1ccc(C2C(C#N)=C(N)Oc3cc(Oc4cc(N5CCN(CCO)CC5)nc(C)n4)ccc32)cc1` (stereo unspecified), the figures for the IC50 (in the series on HEK-293T [1]; in series [3]) were more than 200 µM and 16 µM, respectively. In the series on HEK-293T [4], the Activity entry is on record as “Non-Toxic”.

Take `Cc1nc(Oc2ccc3c(c2)NC(N)=C(C#N)C3c2c(Cl)cccc2Cl)cc(N2CCN(CCO)CC2)n1` (stereo unspecified): the figures for the IC50 (in the series with HEK-293T [1]; in series [3]) were 62 µM and 102 µM, respectively. The Activity entry with HEK-293T [2] is reported as “Toxic”.

Take `Cc1nc(Oc2ccc3c(c2)OC(N)=C(C#N)C3c2ccccc2)cc(N2CCN(CCO)CC2)n1` (stereo unspecified): the figures for the 50% inhibitory concentration (IC50) (in the series with HEK-293T [1]; in series [3]) were more than 200 µM and 92 µM, respectively. For the same compound, the Activity entry in the series with HEK-293T [4] was “Non-Toxic”.

Turning to `Cc1ccc(C2C(C#N)=C(N)Nc3cc(Oc4cc(N5CCN(CCO)CC5)nc(C)n4)ccc32)cc1` (stereo unspecified), the 50% inhibitory concentration (IC50) came to 140 µM with HEK-293T [1] and 48 µM in series [3]. Besides, in the series with HEK-293T [4], the Activity entry is on record as “Non-Toxic”.

On to `Cc1nc(Oc2ccc3c(c2)OC(N)=C(C#N)C3c2ccc(Br)cc2)cc(N2CCN(CCO)CC2)n1` (stereo unspecified), for which the IC50 in the series with HEK-293T [1] was 19 µM; in series [3], 91 µM. Besides, the Activity entry in the series with HEK-293T [2] is given as “Toxic”.

As to `Cc1nc(Oc2ccc3c(c2)NC(N)=C(C#N)C3c2ccccc2C)cc(N2CCN(CCO)CC2)n1` (stereo unspecified), the IC50 in the series on HEK-293T [1] came to 57 µM; in series [3], 198 µM. The Activity result in the series on HEK-293T [2] is “Toxic”.

Consider `Cc1nc(Oc2ccc3c(c2)NC(N)=C(C#N)C3c2ccc(Cl)cc2)cc(N2CCN(CCO)CC2)n1` (stereo unspecified), for which the IC50 in the series with HEK-293T [1] stood at 95 µM; in series [3], 170 µM. Moreover, the Activity result with HEK-293T [2] is “Toxic”.

Consider `Cc1nc(Oc2ccc3c(c2)OC(N)=C(C#N)C3c2c(Cl)cccc2Cl)cc(N2CCN(CCO)CC2)n1` (stereo unspecified), for which the values for the IC50 (with HEK-293T [1]; in series [3]) were 51 µM and 136 µM, respectively. The Activity entry in the series with HEK-293T [2] is recorded as “Toxic”.

Consider `COc1cc(/C=C/C(=O)CC(=O)/C=C/c2ccc(O)c(OC)c2)ccc1O` [CURCUMIN], for which, in the series on HEK-293T [1], the IC50 is more than 400 µM.
